Results on 90 compounds are retold here after PubChem BioAssay AID1508612.

Several values for one entry are separate records, joined by “and”; a condition that tells them apart may be missing. Equal values may be shown once.

The nature of this data set: passive permeability, PAMPA, ADME assay (AID 1508612). Particulars: pH 7.4, 30.0 min, 50.0 µM. (In general: PAMPA measures passive passage across an artificial lipid membrane.)

The term Papp denotes a coefficient for how fast a substance crosses the barrier. Low readings indicate poor permeation, high ones ready permeation. Compound `CCS(=O)(=O)c1nc(-c2ccc(Cl)cc2)cc(C(F)(F)F)n1` had a Papp of 975 ×10⁻⁶ cm/s. Compound `Cc1ccccc1C(=O)NC1CCN(c2ccc3nnc(C4CC4)n3n2)CC1` registered a Papp of 97.8 ×10⁻⁶ cm/s. In turn, `Cc1cccc(C(=O)Nc2ccc(N3CCC(N4CCCCC4)CC3)c(C(=O)O)c2)c1` showed a Papp of 5.2 ×10⁻⁶ cm/s. In turn, `COc1ccc2[nH]c(C[C@@H]3C[C@@H](C(C)C)[C@H](CNCc4ccccc4O)C=C3C)nc2n1` returned a Papp greater than 1000 ×10⁻⁶ cm/s. In the case of `Cc1ccccc1-c1nc(CN2CCC(C(=O)NCCCN3CCOCC3)CC2)c(C)o1`, the Papp was 432 ×10⁻⁶ cm/s. To `CC(C)N(CCCNC(=O)Nc1ccc(C(C)(C)C)cc1)C[C@H]1O[C@@H](n2cc(Br)c3c(N)ncnc32)[C@H](O)[C@H]1O` belongs 472 ×10⁻⁶ cm/s; to `Cc1ccc(C(=O)Nc2nc(-c3ccccn3)cs2)cc1S(=O)(=O)N1CCOCC1`, 540 ×10⁻⁶ cm/s; to `Cc1ccccc1-c1nc(NCc2ccc(-c3cccnc3)cc2)c2ccccc2n1`, 547 ×10⁻⁶ cm/s. To `Fc1cc(Nc2nc(-c3ccncc3)nc3ccccc23)ccc1N1CCCCC1` belongs greater than 1000 ×10⁻⁶ cm/s; to `COc1cccc(C(=O)Nc2nc(-c3nnn(-c4ccccc4C(F)(F)F)c3C)ns2)c1`, 383 ×10⁻⁶ cm/s; to `CC(=O)c1c(C)oc2ccc(N(C(=O)Oc3ccccc3)S(=O)(=O)c3ccccc3)cc12`, greater than 1000 ×10⁻⁶ cm/s.

Consider `CCN1CCC(N(Cc2ccc3c(c2)OCO3)C(=O)Nc2cc(Cl)ccc2C(=O)OC)CC1`, for which the apparent permeability coefficient (Papp) was greater than 1000 ×10⁻⁶ cm/s. Then `Cc1cc(C)c(CNC(=O)c2nc(-c3cccc(CO)c3)cc3c2ccn3C)c(=O)[nH]1`, with greater than 1000 ×10⁻⁶ cm/s.

In turn, `Cc1cc(C)nc(NC(=S)N2CCN(c3cccc(C(F)(F)F)c3)CC2)c1` gave an apparent permeability coefficient (Papp) of 593 ×10⁻⁶ cm/s. As for `COc1ccccc1Nc1ccnc(N2CCN(C(=O)c3ccc(C)cc3)CC2)n1`, the Papp is greater than 1000 ×10⁻⁶ cm/s. To `Cc1ccc(-n2nc3c(=O)n(CCCC(=O)NC(C)c4ccccc4)nc(C)c3c2C)cc1` (stereo not given) belongs 695 ×10⁻⁶ cm/s; to `CCOc1cc(=O)n2c(c1C(=O)Nc1cc(OC)c(Cl)cc1OC)CCCC2`, 96.6 ×10⁻⁶ cm/s. To `Cc1ccc(NS(=O)(=O)c2cc3c(cc2N[C@H](C)CO)NC(=O)CC3)cc1C` belongs 273 ×10⁻⁶ cm/s; to `CN=C1CN=C(c2ccc[nH]2)c2cc(Cl)ccc2N1`, 354 ×10⁻⁶ cm/s and > 1000 ×10⁻⁶ cm/s. Take `Cc1cc(-c2cc3c(nc2-c2ccccc2)nc(C(=O)NCCN(C)C)n3C)ccn1`: the Papp was 320 ×10⁻⁶ cm/s. Consider `CC(C)c1ccccc1-c1ncc(F)c(NCc2ccc(-n3ccnn3)cc2)n1`, for which the Papp was greater than 1000 ×10⁻⁶ cm/s.

Compound `Cc1cccc(-n2cnc3cc(C(=O)N4CCCC(C(F)(F)F)C4)ccc32)c1` (stereo not given) yielded a Papp greater than 1000 ×10⁻⁶ cm/s.

In turn, `CCOC(=O)C1CCN(C(=O)C2(NC(=O)Nc3ccccc3Cl)CCCC2)CC1` yielded a Papp of 229 ×10⁻⁶ cm/s.

On to `Cc1cccc(-n2cnc3cc(C(=O)N4CCCCCC4)ccc32)c1`, for which the Papp was greater than 1000 ×10⁻⁶ cm/s.

In turn, `O=C(Nc1ccc2oc(-c3ccccc3F)nc2c1)c1ccc([N+](=O)[O-])o1` returned a Papp of 38.4 ×10⁻⁶ cm/s. In turn, `CNC(=O)c1nn(C)c2c1C(C)(C)Cc1cnc(Nc3ccc(N4CCN(C)CC4)cc3)nc1-2` displayed a Papp greater than 1000 ×10⁻⁶ cm/s. Compound `OCCn1cc(-c2cnc3nnn(Cc4ccc5ncccc5c4)c3n2)cn1` gave a Papp of 97.5 ×10⁻⁶ cm/s.

In the case of `Cc1ccc(-c2nnc(N3CCC(C(N)=O)CC3)s2)cc1`, the Papp amounted to 246 ×10⁻⁶ cm/s.

As to `Cc1nc(N2CCN(c3ccccn3)CC2)c2c(C)c(C(=O)Nc3ccc(F)cc3Cl)sc2n1`, the Papp was greater than 1000 ×10⁻⁶ cm/s. `O=C(O)c1c(Sc2ccccc2)c2cc(Cl)ccc2n1Cc1ccc(Cl)cc1` registered a Papp of 709 ×10⁻⁶ cm/s. In the case of `O=C1CCCC2=C1C(c1[nH]ncc1Cl)N=C(Nc1nc3cc(F)ccc3o1)N2` (stereo not given), the Papp is 647 ×10⁻⁶ cm/s. The compound `Cc1cc(F)ccc1-c1nc(NCCN=C(N)NC#N)nc2c1ccc(=O)n2-c1c(F)cccc1F` gave a Papp of less than 1 ×10⁻⁶ cm/s. To `c1cc(OCCN2CCCCC2)cc(-c2n[nH]c3ccc(-c4ncn[nH]4)cc23)c1` belongs less than 1 ×10⁻⁶ cm/s; to `CCN(CC)C(=O)c1coc(COc2ccc3c(c2)C(c2cccc(F)c2)N(C(=O)C(C)C)CC3)n1` (stereo not given), greater than 1000 ×10⁻⁶ cm/s. As for `CN(C(=O)c1cn2c(-c3ccc(C(F)(F)F)cc3)cnc2cn1)c1ccc(C#N)cc1`, the Papp was determined as 874 ×10⁻⁶ cm/s.

On to `COc1ccc(C(=O)Nc2nc(-c3ccccc3)cs2)c(OC)c1`, for which the Papp is greater than 1000 ×10⁻⁶ cm/s. Turning to `Cc1cc(-c2nnc3n2CCCCC3)c(C)n1-c1cccc(C(F)(F)F)c1`, the Papp was greater than 1000 ×10⁻⁶ cm/s. To `Cc1ccc(-c2csc(N3CCC(C(N)=O)CC3)n2)cc1` belongs 711 ×10⁻⁶ cm/s; to `Fc1cc(-c2nc(Nc3ccc(F)c(F)c3)c3ccccc3n2)ccn1`, 116 ×10⁻⁶ cm/s; to `c1cc(-c2cc(-c3ccncc3)c3cncn3c2)c2[nH]ccc2c1`, 157 ×10⁻⁶ cm/s. Then `Cc1cc(-c2ccc(C)c(S(=O)(=O)NCC3CCN(Cc4ccc(F)cc4)CC3)c2)on1`, with greater than 1000 ×10⁻⁶ cm/s. Consider `CN(C)C(=O)c1nc(-c2ccc(S(C)(=O)=O)cc2)c2cnccn12`, for which the Papp stood at 16.8 ×10⁻⁶ cm/s. Take `Cc1cnc(CNc2nc(-c3ccccc3Cl)nc3ccccc23)cn1`: the Papp was greater than 1000 ×10⁻⁶ cm/s. Then `COc1ccccc1C(=O)Nc1nc2nc(C)cc(=O)n2[nH]1`, with 7.8 ×10⁻⁶ cm/s; and `Fc1cc(Nc2nc(-c3ccncc3)nc3ccccc23)ccc1-c1cccnc1`, with 5.4 ×10⁻⁶ cm/s. Turning to `Brc1ccc(-c2csc(N3CCOCC3)n2)cc1`, the Papp is less than 1 ×10⁻⁶ cm/s. `COc1ccc(-n2c(C)cc(C3=NNC(=NC4CC4)SC3)c2C)cc1` yielded a Papp of 610 ×10⁻⁶ cm/s. To `COc1ccc(NC(=O)c2ccccc2)cc1S(=O)(=O)Nc1ccc(Br)cc1` belongs 731 ×10⁻⁶ cm/s. `COc1ccc(C[C@@H]2C(=O)N[C@H](C)C(=O)N(C)[C@@H]3C(=O)N(C)[C@@H](Cc4ccc(O)c(c4)Oc4ccc(cc4)[C@H]3O)C(=O)N[C@@H](C)C(=O)N[C@H](C)C(=O)N2C)cc1` yielded a Papp of 4.5 ×10⁻⁶ cm/s. To `O=C(O)c1ccnc2cc(-c3nc4ccccc4n3CCN3CCCCC3)sc12` belongs 4 ×10⁻⁶ cm/s; to `CC1(C)CC(=O)C2=C(C1)NC(Nc1nc3ccccc3o1)=NC2c1ccccc1Cl` (stereo not given), greater than 1000 ×10⁻⁶ cm/s; to `C[C@@]1(c2ncncc2F)NC(=O)c2cc(-c3cn[nH]c3)ccc21`, 52.1 ×10⁻⁶ cm/s. Then `COc1ccccc1N1CCN(CCN(C(=O)c2ccc(F)cc2)c2ccccn2)CC1`, with greater than 1000 ×10⁻⁶ cm/s; and `COC(=O)CNC(=O)c1nc(-c2ccccc2OC)c2ccccn12`, with greater than 1000 ×10⁻⁶ cm/s. In the case of `COc1cccc(-c2csc(NC(=O)c3ccncc3NS(=O)(=O)c3ccc(C)cc3)n2)c1`, the Papp was greater than 1000 ×10⁻⁶ cm/s. In turn, `O=C(c1cc2ccccc2[nH]1)N1CCc2c(n(Cc3cccnc3)n(CCc3ccccc3)c2=O)C1` came in with a Papp of 381 ×10⁻⁶ cm/s. To `CCC(CC)(NC(=O)C(C)C)C(=O)N[C@@H](CCCN=C(N)N)C(=O)NC1(C(=O)NC(c2ccc(F)cc2)c2ccc(F)cc2)CCCC1` belongs 8 ×10⁻⁶ cm/s; to `Fc1cc(Nc2nc(-c3ccncc3)nc3ccccc23)ccc1-n1cncn1`, 171 ×10⁻⁶ cm/s; to `CCN(CC)S(=O)(=O)c1cccc(C(=O)Nc2ccc(C#N)cc2)c1`, greater than 1000 ×10⁻⁶ cm/s. With `CC(=O)c1ccc(N2CCN(S(=O)(=O)c3ccc4c(c3)n(C)c(=O)n4C)CC2)cc1`, the Papp is 306 ×10⁻⁶ cm/s. To `O=S(=O)(Nc1ccccc1)c1ccc(NCc2ccc(Br)cc2O)cc1` belongs 537 ×10⁻⁶ cm/s; to `CS(=O)(=O)Nc1cccc(-c2nccc(-n3ccnc3)n2)c1`, 355 ×10⁻⁶ cm/s. Then `COc1ccc(-c2cn[nH]c2-c2ccc(OC)cc2)cc1`, with greater than 1000 ×10⁻⁶ cm/s; and `Cc1ccnc(N=C(N)N2CCN(c3cccc(C(F)(F)F)c3)CC2)c1`, with 383 ×10⁻⁶ cm/s.

Compound `CCOC(=O)C1CCN(C(=O)C(C)(C)NC(=O)Nc2ccc(-c3ccccc3)cc2)CC1` came in with a Papp of 486 ×10⁻⁶ cm/s. To `Cn1nnnc1Sc1ncnc2scc(Br)c12` belongs 177 ×10⁻⁶ cm/s; to `Cc1cc(C)nc(NS(=O)(=O)c2ccc(NC(=S)NC(=O)COc3ccc(Br)cc3Cl)cc2)n1`, 457 ×10⁻⁶ cm/s. With `O=C1Nc2ccccc2/C1=C/c1cc(Cl)c(O)c(Cl)c1`, the Papp is 49 ×10⁻⁶ cm/s. To `CC1=Nc2cc(C(=O)NC3CCCC3)ccc2Sc2ccc(C)cc21` belongs greater than 1000 ×10⁻⁶ cm/s. Then `O=C(Nc1nc(-c2ccccc2)cs1)c1ccncc1NS(=O)(=O)c1cccc2cccnc12`, with 445 ×10⁻⁶ cm/s; and `Cc1ccc(CNCc2cn[nH]c2-c2ccc(C)cc2)cc1`, with greater than 1000 ×10⁻⁶ cm/s; and `O=C(Nc1ccc(N2CCC(N3CCCCC3)CC2)c(C(=O)O)c1)c1ccc(Br)cc1`, with less than 1 ×10⁻⁶ cm/s. To `Cc1ccnc(NC(=S)N2CCN(c3cccc(C(F)(F)F)n3)CC2)c1` belongs 866 ×10⁻⁶ cm/s. As to `Cn1c(=O)cc(C(=O)NC2CCCc3c2[nH]c2c(Cl)cccc32)c2ccccc21` (stereo not given), the Papp stood at 68 ×10⁻⁶ cm/s. This Papp is about 13-fold lower than that of the compound before. For `O=C(Nc1nc(-c2ccccc2)cs1)c1ccncc1NS(=O)(=O)c1ccc(F)cc1`, the Papp was 748 ×10⁻⁶ cm/s. `Cc1cc(F)ccc1S(=O)(=O)Nc1cnccc1C(=O)Nc1nc(-c2ccccc2)cs1` displayed a Papp greater than 1000 ×10⁻⁶ cm/s. `Cc1ccc(S(=O)(=O)Nc2cnccc2C(=O)Nc2nc(C(=O)O)cs2)cc1` had a Papp of less than 1 ×10⁻⁶ cm/s.

With `Cc1ccc(S(=O)(=O)Nc2cnccc2C(=O)Nc2nc(-c3ccc(C)c(C)c3)cs2)cc1`, the Papp was greater than 1000 ×10⁻⁶ cm/s.

`O=C(c1nc(-c2cccnc2)c2ccccn12)N1CCN(c2ncccn2)CC1` returned a Papp greater than 1000 ×10⁻⁶ cm/s.

With `O=C1NCc2ccc(-c3cc4c(ccn4Cc4cccnc4)c(C4=CCOCC4)n3)cc21`, the Papp came to 175 ×10⁻⁶ cm/s. Then `Fc1cc(Nc2nc(-c3ccncc3)nc3ccccc23)ccc1N1CCCC1`, with 110 ×10⁻⁶ cm/s; and `O=S(=O)(c1ccc2ccccc2c1)N1CCN(c2nc(-c3cccs3)nc3ccccc23)CC1`, with 3.2 ×10⁻⁶ cm/s.

Regarding `O=C(NCCCO)c1ccc(-c2ncc3cnc(-c4cccc(F)c4)cn23)cc1`, the apparent permeability (Papp) was determined as 32 ×10⁻⁶ cm/s. This Papp is about 10-fold higher than that of the compound before. Regarding `Cc1ccc(-n2nc3c(=O)n(CCCC(=O)NCc4ccc(F)cc4)nc(C)c3c2C)cc1`, the Papp turned out to be 842 ×10⁻⁶ cm/s. This Papp is about 26-fold higher than that of the compound before. `COc1ccc(CCNc2ncnc3onc(C)c23)c(OC)c1` came in with a Papp of 752 ×10⁻⁶ cm/s. The Papp values of the last two compounds are within 1.5-fold of each other. Then `Cn1nnnc1SCCCNCc1cccc(OCc2ccccc2Cl)c1`, with greater than 1000 ×10⁻⁶ cm/s; and `Cc1cc(N2CCN(c3ccccc3)CC2)nc(-n2nc(C)cc2C)n1`, with greater than 1000 ×10⁻⁶ cm/s. With `CC(=O)c1c(C)[nH]c(C(=O)Nc2cccc([S+](=O)([O-])N3CC[C@@H](F)C3)c2)c1C`, the Papp was determined as 199 ×10⁻⁶ cm/s.

Compound `CCOC(=O)c1nnc(N[S+](=O)([O-])c2ccc(NC(=O)Cc3ccc(Cl)c(Cl)c3)cc2)s1` had a Papp of 1.1 ×10⁻⁶ cm/s. This Papp lies about 180-fold lower than the previous one.

Compound `Fc1cnc(-c2ccccc2C(F)F)nc1NCc1ccc(-c2ccn[nH]2)cc1` gave a Papp greater than 1000 ×10⁻⁶ cm/s.
